In US20230086702A1, “SUBSTITUTED 2-AMINO-PYRAZOLYL-[1,2,4]TRIAZOLO[1,5A]PYRIDINE DERIVATIVES AND USE THEREOF” (The Johns Hopkins University, priority 2019, published 2023) one finds IC50 data, which are given here for ten compounds.

As a reminder, the IC50 is the concentration that inhibits the measured activity by half.

One test deals with T1, LZK (Homo sapiens, UniProt O43283).
T1 construct: 10 nM LZK, catalytic domain, Carna Biosiences in assay buffer; purchased Carna Biosciences ('Carna Biosiences' [sic])
T1 sequence (O43283 168-409 limits assumed): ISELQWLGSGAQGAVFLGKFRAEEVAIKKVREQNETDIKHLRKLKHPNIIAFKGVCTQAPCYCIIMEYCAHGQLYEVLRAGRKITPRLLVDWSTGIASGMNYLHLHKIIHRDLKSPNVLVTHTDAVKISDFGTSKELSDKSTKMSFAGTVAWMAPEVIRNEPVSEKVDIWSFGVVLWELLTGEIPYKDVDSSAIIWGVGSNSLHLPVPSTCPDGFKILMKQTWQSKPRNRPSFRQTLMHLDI
Kind of test: LZK biochemical assay (TR-FRET, MKK7 phosphorylation). The procedure: (§1) LZK assay is a biochemical assay format designed to screen for inhibitors of LZK. Enzymatic activity of LZK is measured by monitoring phosphorylation of the physiological substrate MKK7 (MAP2K7, Dual specificity mitogen-activated protein kinase kinase 7). Phosphorylation is detected by a TR-FRET system whereby His-tagged MKK7 is labeled by a XL665-labeled anti-His antibody (FRET acceptor, emission 665 nm). LZK phosphorylates MKK7 at T275/S277 which is detected by an Eu-labeled anti-phospho-MKK7 (T275/S277) antibody (FRET donor, excitation 340 nm). Phosphorylation of MKK7 results in an increased TR-FRET signal (Ratio XL665-channel/Eu-channel) and inhibition of enzymatic activity of LZK decreases the TR-FRET signal.
Assay Protocol for 384 low volume MTP format: 1 μl of test compound is pipetted into test plate; +5 μl LZK solution (10 nM LZK, catalytic domain, Carna Biosiences in assay buffer); +5 μl substrate solution (15 nM MKK7, LDB; 15 μM ATP, in assay buffer); 90 min incubation at RT; +5 μl detection mix (20 nM XL665-labeled anti-His antibody, Cisbio; 0.4 nM Eu-labeled anti-phospho-MKK7 (T275/S277), Cisbio/Millipore in detection buffer); 16 h incubation at 32° C.; endpoint measurement BMG (HTRF).
(§2) All indicated concentrations final concentrations.
(§3) Assay buffer (384 format): 50 mM Hepes pH 7.5, 10 mM MgCl2, 1 mM EGTA, 1 mM DTT, 0.01% Triton X-100, 0.01% BSA, 1:500 Smart Block.
(§4) Detection buffer: 25 mM Tris/HCl pH 7.5, 100 mM EDTA, 100 mM NaCl, 200 mM KF, 0.01% Tween 20, 1:500 Smart Block.

The target in a further test is T2, DLK (Homo sapiens, UniProt Q12852).
T2 construct: 10 nM DLK, catalytic domain, Carna Biosiences; purchased Carna Biosciences ('Carna Biosiences' [sic])
T2 sequence (Q12852 125-366 limits assumed): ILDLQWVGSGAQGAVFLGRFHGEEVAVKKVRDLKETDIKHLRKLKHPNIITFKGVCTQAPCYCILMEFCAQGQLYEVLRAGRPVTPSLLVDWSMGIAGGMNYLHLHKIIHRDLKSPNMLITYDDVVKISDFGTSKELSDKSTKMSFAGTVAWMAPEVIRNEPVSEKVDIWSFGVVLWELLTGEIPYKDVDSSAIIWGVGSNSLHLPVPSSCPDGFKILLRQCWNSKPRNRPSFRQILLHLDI
Kind of test: DLK biochemical assay (TR-FRET, MKK7 phosphorylation). The method, then: as §1, with “DLK assay” for “LZK assay”, “of DLK.” for “of LZK.”, “of DLK” for “of LZK”, “nm). DLK” for “nm). LZK”, “at T275/S277,” for “at T275/S277”
Assay Protocol for 1536 MTP format: test compounds are predispensed (60 nl) in test plates; +3 μl DLK solution (10 nM DLK, catalytic domain, Carna Biosiences, 0.6 mM DTT in assay buffer); +2 μl substrate solution (15 nM MKK7, LDB; 60 μM ATP; 0.4 mM DTT in assay buffer); 90 min incubation at RT; +2 μl detection mix (5 nM XL665-labeled anti-His antibody, Cisbio; 0.1 nM Eu-labeled anti-phospho-MKK7 (T275/S277), Cisbio/Millipore in detection buffer); 16 h incubation at 37° C.; endpoint measurement BMG (HTRF).
Assay Protocol for 384 low volume MTP format: 1 μl of test compounds is pipetted into test plate; +5 μl DLK solution (10 nM DLK, catalytic domain, Carna Biosiences in assay buffer); +5 μl substrate solution (15 nM MKK7, LDB; 60 μM ATP, in assay buffer); 90 min incubation at RT; +9 μl detection mix (20 nM XL665-labeled anti-His antibody, Cisbio; 0.4 nM Eu-labeled anti-phospho-MKK7 (T275/S277), Cisbio/Millipore in detection buffer); 16 h incubation at 4° C.; endpoint measurement BMG (HTRF).
as §2, §3, §4
(Time-resolved FRET reads energy transfer from a long-lived donor to a nearby acceptor.)

Consider `Nc1nc2c(-c3cnn(CC(F)(F)F)c3)cc(-c3cnn(C4CCN(C5COC5)CC4)c3)cn2n1` [II-120, 6-{1-[1-(Oxetan-3-yl)piperidin-4-yl]-1H-pyrazol-4-yl}-8-[1-(2,2,2-trifluoroethyl)-1H-pyrazol-4-yl][1,2,4]triazolo[1,5-a]pyridin-2-amine], for which the figures for the IC50 at LZK and at DLK were 140 nM and 240 nM, respectively.
The matching figures for `CCc1cnc(-c2cc(-c3cnn(Cc4ccccc4)c3)cc3nc(N)nn23)cn1` [II-87, 7-(1-Benzyl-1H-pyrazol-4-yl)-5-(5-ethylpyrazin-2-yl)[1,2,4]triazolo[1,5-a]pyridin-2-amine]: 530 nM and 42 nM.
Taken in the same sequence, the figures for `CCC(c1ccc(C(F)(F)F)nc1)n1cc(-c2cc(-c3ccc(=O)n(C(F)F)c3)n3nc(N)nc3c2)cn1` (single isomer, unassigned) [II-181, 5-[2-Amino-7-(1-{1-[6-(trifluoromethyl)pyridin-3-yl]propyl}-1H-pyrazol-4-yl)[1,2,4]triazolo[1,5-a]pyridin-5-yl]-1-(difluoromethyl)pyridin-2(1H)-one] were 5.4 nM and 2.7 nM.
Taken in the same sequence, the figures for `CC(C)C(c1ccc(C(F)(F)F)nc1)n1cc(-c2cc(-c3ccc(N4CCCC4)nc3)n3nc(N)nc3c2)cn1` (racemic) [II-79, 7-(1-{2-Methyl-1-[6-(trifluoromethyl)pyridin-3-yl]propyl}-1H-pyrazol-4-yl)-5-[6-(pyrrolidin-1-yl)pyridin-3-yl][1,2,4]triazolo[1,5-a]pyridin-2-amine] were 27 nM and 46 nM.
As for `CCC(c1ccc(C(F)(F)F)cc1)n1cc(-c2cc(-c3cnn(C4CCCC4)c3)n3nc(N)nc3c2)cn1` (single isomer, unassigned) [II-133, 5-(1-Cyclopentyl-1H-pyrazol-4-yl)-7-(1-{1-[4-(trifluoromethyl)phenyl]propyl}-1H-pyrazol-4-yl)[1,2,4]triazolo[1,5-a]pyridin-2-amine], the IC50 against LZK came out at 130 nM; on DLK, 45 nM.
The matching figures for `Nc1nc2c(-c3cccc(S(=O)(=O)C(F)(F)F)c3)cc(-c3cnn(C(c4ccc(C(F)(F)F)nc4)C4CCOCC4)c3)cn2n1` (racemic) [II-19, 6-(1-{Tetrahydro-2H-pyran-4-yl[6-(trifluoromethyl)pyridin-3-yl]methyl}-1H-pyrazol-4-yl)-8-{3-[(trifluoromethyl)sulfonyl]phenyl}[1,2,4]triazolo[1,5-a]pyridin-2-amine]: 45 nM and 17 nM.
Taken in the same sequence, the figures for `Nc1nc2c(-c3ccc(=O)n(C(F)F)c3)cc(-c3cnn(C(c4ccc(C(F)(F)F)nc4)C4CCOCC4)c3)cn2n1` (centres unmarked) [II-153] were 3.5 nM and 1.4 nM.
As to `Nc1nc2c(-c3ccn(CC(F)F)c(=O)c3)cc(-c3cnn(C(c4ccc(C(F)(F)F)nc4)C4CCOCC4)c3)cn2n1` (centres unmarked) [II-172], the results for the concentration for half-maximal inhibition (IC50) on LZK and against DLK were 11 nM and 2.2 nM, respectively.
Taken in the same sequence, the figures for `CS(=O)(=O)c1cccc(-c2cc(-c3cnn(C(c4ccc(C(F)(F)F)nc4)C4CCOCC4)c3)cn3nc(N)nc23)c1` (racemic) [II-13, 8-[3-(Methylsulfonyl)phenyl]-6-(1-{tetrahydro-2H-pyran-4-yl[6-(trifluoromethyl)pyridin-3-yl]methyl}-1H-pyrazol-4-yl)[1,2,4]triazolo[1,5-a]pyridin-2-amine] were 1.8 nM and 0.7 nM.
The matching figures for `CCC(c1ccc(C(F)(F)F)nc1)n1cc(-c2cc(-c3cnn(CC(F)F)c3)c3nc(N)nn3c2)cn1` (racemic) [II-108, 8-[1-(2,2-Difluoroethyl)-1H-pyrazol-4-yl]-6-(1-{1-[6-(trifluoromethyl)pyridin-3-yl]propyl}-1H-pyrazol-4-yl)[1,2,4]triazolo[1,5-a]pyridin-2-amine]: 37 nM and 6.3 nM.
